Laboratory results as given in US20240101570A1 (AMGEN INC., priority 2020, published 2024).

Experiments:
HCT116 MTAP null cells = experiment: HCT116 MTAP null cell proliferation / viability (CellTiter-Glo, 6 days); assay type: cell-based; conditions: HCT116-MTAP null, 144 h, HCT116 MTAP null cells, 6 days, CellTiter-Glo; read-out: HCT-116 MTAP null IC50
Method in brief: (§1)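 Viability read by CellTiter-Glo after 6-day compound exposure of MTAP-null and wild-type HCT116 cells grown in RPMI 1640 with 10% FBS. Dosing used 1:3 steps from 1 or 10 μM (8-9 points) or 1:2 steps from 10 or 50 μM (22 points); IC50 taken where fitted curve crosses 50% of control.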

HCT116 WT cells = experiment: HCT116 WT cell proliferation / viability (CellTiter-Glo, 6 days); assay type: cell-based; conditions: Homo sapiens, HCT-116, 144 h, HCT116 WT cells, 6 days, CellTiter-Glo; read-out: HCT-116 WT IC50
Method in brief: as §1

SMILES	IC50 (HCT116 MTAP null cells) [nM]	IC50 (HCT116 WT cells) [nM]
C[C@H](c1ncccn1)N(Cc1ccc(Cl)cn1)C(=O)c1cnc2nc(N)c3c(c2c1)CCC3 [Example 627, 6-amino-N-((5-chloro-2-pyridinyl)methyl)-N-((1R)-1-(2-pyrimidinyl)ethyl)-8,9-dihydro-7H-cyclopenta[c][1,8]naphthyridine-2-carboxamide]	45	583
C[C@H](c1ncccc1F)N(Cc1ccc(C(F)(F)F)nn1)C(=O)c1cnc2nc(N)c3c(c2c1)CCC3 [Example 628, 6-amino-N-((1R)-1-(3-fluoro-2-pyridinyl)ethyl)-N-((6-(trifluoromethyl)-3-pyridazinyl)methyl)-8,9-dihydro-7H-cyclopenta[c][1,8]naphthyridine-2-carboxamide]	119	1190
C[C@H](c1ncccn1)N(Cc1ccc(C(F)(F)F)cn1)C(=O)c1ccc2nc(N)c3ccccc3c2c1 [Example 629, 6-amino-N-((1R)-1-(2-pyrimidinyl)ethyl)-N-((5-(trifluoromethyl)-2-pyridinyl)methyl)-2-phenanthridinecarboxamide]	16	398
C[C@H](c1ncccn1)N(Cc1ccc(C#N)cn1)C(=O)c1ccc2nc(N)c3ccccc3c2c1 [Example 630, 6-amino-N-((5-cyano-2-pyridinyl)methyl)-N-((1R)-1-(2-pyrimidinyl)ethyl)-2-phenanthridinecarboxamide]	19	408
Nc1nc2ccc(C(=O)N(Cc3ccc(C(F)(F)F)cn3)Cc3ncccn3)cc2c2cnccc12 [Example 631, 5-amino-N-(2-pyrimidinylmethyl)-N-((5-(trifluoromethyl)-2-pyridinyl)methyl)benzo[c][2,6]naphthyridine-9-carboxamide]	10	215
C[C@H](c1ncccn1)N(Cc1ccc(C(F)(F)F)cn1)C(=O)c1ccc2nc(N)c3ccncc3c2c1 [Example 633, 5-amino-N-((1R)-1-(2-pyrimidinyl)ethyl)-N-((5-(trifluoromethyl)-2-pyridinyl)methyl)benzo[c][2,6]naphthyridine-9-carboxamide]	13	71
Nc1nc2ccc(C(=O)N(Cc3ccc(C(F)(F)F)cn3)Cc3ncccn3)cc2c2ccsc12 [Example 636, 4-amino-N-(2-pyrimidinylmethyl)-N-((5-(trifluoromethyl)-2-pyridinyl)methyl)thieno[2,3-c]quinoline-8-carboxamide]	149	2990
C[C@H](c1ncccn1)N(Cc1ccc(C(F)(F)F)cn1)C(=O)c1ccc2nc(N)c3ncncc3c2c1 [Example 638, 5-amino-N-((1R)-1-(2-pyrimidinyl)ethyl)-N-((5-(trifluoromethyl)-2-pyridinyl)methyl)pyrimido[4,5-c]quinoline-9-carboxamide]	22	378
COC[C@H](C1CC1)N(Cc1ccc(N2CCOCC2)nn1)C(=O)c1ccc2nc(N)c3c(c2c1)COC3 [Example 641, 4-amino-N-((1S)-1-cyclopropyl-2-methoxyethyl)-N-((6-(4-morpholinyl)-3-pyridazinyl)methyl)-1,3-dihydrofuro[3,4-c]quinoline-8-carboxamide]	16	242
COC[C@@H](C)N(Cc1ccc(Br)nn1)C(=O)c1ccc2nc(N)c3sccc3c2c1 [Example 643, 4-amino-N-((6-bromo-3-pyridazinyl)methyl)-N-((2R)-1-methoxy-2-propanyl)thieno[2,3-c]quinoline-8-carboxamide]	178	1620
COCC(C)(C)N(Cc1ccc(Br)nn1)C(=O)c1ccc2nc(N)c3c(c2c1)COC3 [Example 644, 4-amino-N-((6-bromo-3-pyridazinyl)methyl)-N-(1-methoxy-2-methyl-2-propanyl)-1,3-dihydrofuro[3,4-c]quinoline-8-carboxamide]	2790	> 10000
C[C@H](c1ncccn1)N(Cc1ccc(Br)nn1)C(=O)c1ccc2nc(N)c3c(c2c1)COC3 [Example 657, 4-amino-N-((6-bromo-3-pyridazinyl)methyl)-N-((1R)-1-(2-pyrimidinyl)ethyl)-1,3-dihydrofuro[3,4-c]quinoline-8-carboxamide]	13	196
C[C@H](c1ncccn1)N(Cc1ccc(Br)cn1)C(=O)c1ccc2nc(N)c3c(c2c1)COC3 [Example 658, 4-amino-N-((5-bromo-2-pyridinyl)methyl)-N-((1R)-1-(2-pyrimidinyl)ethyl)-1,3-dihydrofuro[3,4-c]quinoline-8-carboxamide]	6	71
C[C@H](c1ncccn1)N(Cc1ccc(C#N)cn1)C(=O)c1ccc2nc(N)c3c(c2c1)COC3 [Example 659, 4-amino-N-((5-cyano-2-pyridinyl)methyl)-N-((1R)-1-(2-pyrimidinyl)ethyl)-1,3-dihydrofuro[3,4-c]quinoline-8-carboxamide]	14	378
C[C@H](c1ncn(C)n1)N(Cc1ccc(C(F)F)cn1)C(=O)c1ccc2nc(N)c3c(c2c1)COC3 [Example 662, 4-amino-N-((5-(difluoromethyl)-2-pyridinyl)methyl)-N-((1R)-1-(1-methyl-1H-1,2,4-triazol-3-yl)ethyl)-1,3-dihydrofuro[3,4-c]quinoline-8-carboxamide]	29	290

Other lines, results leading:

IC50 (HCT116 MTAP null cells) [nM]	IC50 (HCT116 WT cells) [nM]	SMILES
43	444	C[C@H](c1ncccn1)N(Cc1ccc(C(F)(F)F)cn1)C(=O)c1cnc2nc(N)c3c(c2c1)CCC3 [Example 626, 6-amino-N-((1R)-1-(2-pyrimidinyl)ethyl)-N-((5-(trifluoromethyl)-2-pyridinyl)methyl)-8,9-dihydro-7H-cyclopenta[c][1,8]naphthyridine-2-carboxamide]
11	231	CC(C)CN(Cc1ccc(C(F)(F)F)cn1)C(=O)c1ccc2nc(N)c3ccncc3c2c1 [Example 632, 5-amino-N-(2-methylpropyl)-N-((5-(trifluoromethyl)-2-pyridinyl)methyl)benzo[c][2,6]naphthyridine-9-carboxamide]
73	1210	Nc1nc2ccc(C(=O)N(Cc3ccc(C(F)(F)F)cn3)Cc3ncccc3F)cc2c2ccsc12 [Example 635, 4-amino-N-((3-fluoro-2-pyridinyl)methyl)-N-((5-(trifluoromethyl)-2-pyridinyl)methyl)thieno[2,3-c]quinoline-8-carboxamide]
212	3220	CC(C)CN(Cc1ccc(C(F)(F)F)cn1)C(=O)c1ccc2nc(N)c3sccc3c2c1 [Example 637, 4-amino-N-(2-methylpropyl)-N-((5-(trifluoromethyl)-2-pyridinyl)methyl)thieno[2,3-c]quinoline-8-carboxamide]
41	1300	CCOc1ccc(CN(CC(C)C)C(=O)c2ccc3nc(N)c4c(c3c2)COC4)nn1 [Example 642, 4-amino-N-((6-ethoxy-3-pyridazinyl)methyl)-N-(2-methylpropyl)-1,3-dihydrofuro[3,4-c]quinoline-8-carboxamide]
≥ 50000	> 50000	COCC(C)(C)N(Cc1ccc(Br)nn1)C(=O)c1cc2c3c(c(N)nc2cn1)COC3 [Example 645, 4-amino-N-((6-bromo-3-pyridazinyl)methyl)-N-(1-methoxy-2-methyl-2-propanyl)-1,3-dihydrofuro[3,4-c][1,7]naphthyridine-8-carboxamide]
50	1390	Nc1nc2cnc(C(=O)N(Cc3ccc(C(F)(F)F)cn3)CC3CC3)cc2c2c1COC2 [Example 652, 4-amino-N-(cyclopropylmethyl)-N-((5-(trifluoromethyl)pyridin-2-yl)methyl)-1,3-dihydrofuro[3,4-c][1,7]naphthyridine-8-carboxamide]
8	73	C[C@H](c1ncccn1)N(Cc1ccc(C(F)(F)F)cn1)C(=O)c1ccc2nc(N)c3c(c2c1)COC3 [Example 653, 4-amino-N-((1R)-1-(2-pyrimidinyl)ethyl)-N-((5-(trifluoromethyl)-2-pyridinyl)methyl)-1,3-dihydrofuro[3,4-c]quinoline-8-carboxamide]
9	171	C[C@H](c1ncccn1)N(Cc1ccc(C(F)(F)F)cn1)C(=O)c1ccc2nc(N)c3c(c2c1)CCCC3 [Example 654, 6-amino-N-((1R)-1-(2-pyrimidinyl)ethyl)-N-((5-(trifluoromethyl)-2-pyridinyl)methyl)-7,8,9,10-tetrahydro-2-phenanthridinecarboxamide]
16	294	C[C@H](c1ncccn1)N(Cc1ccc(C(F)(F)F)cn1)C(=O)c1cc2c3c(c(N)nc2cc1Cl)COC3 [Example 655, 4-amino-7-chloro-N-((1R)-1-(2-pyrimidinyl)ethyl)-N-((5-(trifluoromethyl)-2-pyridinyl)methyl)-1,3-dihydrofuro[3,4-c]quinoline-8-carboxamide]
19	1260	Nc1nc2cc(Cl)c(C(=O)N(Cc3ccc(C(F)(F)F)cn3)C3CC3)cc2c2c1COC2 [Example 656, 4-amino-7-chloro-N-cyclopropyl-N-((5-(trifluoromethyl)-2-pyridinyl)methyl)-1,3-dihydrofuro[3,4-c]quinoline-8-carboxamide]
354	> 10000	Nc1nc2ccc(C(=O)N(Cc3ccc(C(F)(F)F)nn3)C3CC(F)(F)C3)cc2c2c1COC2 [Example 660, 4-amino-N-(3,3-difluorocyclobutyl)-N-((6-(trifluoromethyl)-3-pyridazinyl)methyl)-1,3-dihydrofuro[3,4-c]quinoline-8-carboxamide]
303	26200	Nc1nc2ccc(C(=O)N(Cc3ccc(C(F)(F)F)nn3)C3CC3)cc2c2c1COC2 [Example 661, 4-amino-N-cyclopropyl-N-((6-(trifluoromethyl)-3-pyridazinyl)methyl)-1,3-dihydrofuro[3,4-c]quinoline-8-carboxamide]
